In brackets after ≈: the same amount, converted by molar mass.
System: Mannheimia haemolytica
Experiment: minimum inhibitory concentration (MIC)
Method: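 Broth microdilution MIC (Sensititre BOPO7F bovine plate, CLSI methods) of 19 antimicrobials against field isolates of P. multocida, M. haemolytica, H. somni (deep nasopharyngeal swabs) and E. coli, Enterococcus spp. (rectal swabs) from weaned dairy heifers. Incubation 16-24 h at 35 C. MIC is the lowest concentration preventing visible growth. Values with <= or > lie at the tested range limits. Trimethoprim-sulfamethoxazole is given as the trimethoprim component of a 1:19 mixture.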

CC[C@H]1OC(=O)C[C@@H](O)[C@H](C)[C@@H](O[C@@H]2O[C@H](C)[C@@H](O)[C@H](N(C)C)[C@H]2O)[C@@H](CCN2CCCCC2)C[C@@H](C)C(=O)/C=C/C(C)=C/[C@@H]1CN1CCCCC1 [Tildipirosin]
Details	minimum inhibitory concentration [µg/mL]
isolate (source animal id): 8	≤ 1
isolate (source animal id): 13	≤ 1
isolate (source animal id): 18	≤ 1
isolate (source animal id): 21	≤ 1
isolate (source animal id): 25	16 (≈ 21.8 µM)
isolate (source animal id): 27	16 (≈ 21.8 µM)
isolate (source animal id): 28	4 (≈ 5.45 µM)
isolate (source animal id): 30	≤ 1
isolate (source animal id): 31	4 (≈ 5.45 µM)
isolate (source animal id): 32	≤ 1
isolate (source animal id): 34	≤ 1
isolate (source animal id): 36	16 (≈ 21.8 µM)
isolate (source animal id): 37	16 (≈ 21.8 µM)
isolate (source animal id): 40	≤ 1
isolate (source animal id): 41	≤ 1
isolate (source animal id): 43	≤ 1
isolate (source animal id): 46	16 (≈ 21.8 µM)
isolate (source animal id): 49	16 (≈ 21.8 µM)
isolate (source animal id): 50	16 (≈ 21.8 µM)
isolate (source animal id): 51	≤ 1
isolate (source animal id): 52	≤ 1
isolate (source animal id): 53	≤ 1
isolate (source animal id): 55	≤ 1
isolate (source animal id): 56	≤ 1
isolate (source animal id): 57	> 16
isolate (source animal id): 100	16 (≈ 21.8 µM)
isolate (source animal id): 103	16 (≈ 21.8 µM)
isolate (source animal id): 107	16 (≈ 21.8 µM)
isolate (source animal id): 108	16 (≈ 21.8 µM)
isolate (source animal id): 112	> 16
isolate (source animal id): 113	> 16
isolate (source animal id): 121	16 (≈ 21.8 µM)
isolate (source animal id): 122	2 (≈ 2.72 µM)
isolate (source animal id): 123	> 16
isolate (source animal id): 126	> 16
isolate (source animal id): 133	> 16
isolate (source animal id): 135	> 16
isolate (source animal id): 138	> 16
isolate (source animal id): 141	> 16
isolate (source animal id): 142	> 16
isolate (source animal id): 145	4 (≈ 5.45 µM)
isolate (source animal id): 149	2 (≈ 2.72 µM)
isolate (source animal id): 151	2 (≈ 2.72 µM)
isolate (source animal id): 152	16 (≈ 21.8 µM)
isolate (source animal id): 154	≤ 1
isolate (source animal id): 159	> 16
isolate (source animal id): 162	> 16
isolate (source animal id): 170	2 (≈ 2.72 µM)
isolate (source animal id): 171	≤ 1
isolate (source animal id): 172	2 (≈ 2.72 µM)
isolate (source animal id): 173	2 (≈ 2.72 µM)
isolate (source animal id): 179	2 (≈ 2.72 µM)
isolate (source animal id): 180	≤ 1
isolate (source animal id): 183	≤ 1
isolate (source animal id): 186	≤ 1
isolate (source animal id): 187	≤ 1
isolate (source animal id): 188	≤ 1
isolate (source animal id): 190	≤ 1
isolate (source animal id): 191	2 (≈ 2.72 µM)
isolate (source animal id): 192	≤ 1
isolate (source animal id): 201	2 (≈ 2.72 µM)
isolate (source animal id): 202	4 (≈ 5.45 µM)
isolate (source animal id): 209	2 (≈ 2.72 µM)
isolate (source animal id): 211	2 (≈ 2.72 µM)
isolate (source animal id): 220	2 (≈ 2.72 µM)
isolate (source animal id): 221	2 (≈ 2.72 µM)
isolate (source animal id): 223	2 (≈ 2.72 µM)
isolate (source animal id): 233	8 (≈ 10.9 µM)
isolate (source animal id): 237	16 (≈ 21.8 µM)
isolate (source animal id): 241	16 (≈ 21.8 µM)
isolate (source animal id): 252	16 (≈ 21.8 µM)
isolate (source animal id): 253	16 (≈ 21.8 µM)
isolate (source animal id): 259	> 16
isolate (source animal id): 260	> 16
isolate (source animal id): 262	16 (≈ 21.8 µM)
isolate (source animal id): 282	> 16
isolate (source animal id): 287	> 16

— the supplement of paper PMC8612539
